Data as given in patent US6333176A (Degussa Aktiengesellschaft, priority 1994, dated 2001).
Where two headings read alike, the source gives them in different places. Peptide text beside a SMILES is read from it. * marks the point of attachment. Cbz = O=C(OCc1ccccc1)*

Experiments:
[1] = target: T1, peptide amidase from Xanthomonas maltophilia (Stenotrophomonas maltophilia, UniProt Q8RJN5); test: biochemical; format: biochemical; settings: for remaining activity at 10000 µM: read-out: residual activity
T1 construct: wild type, not recombinant
T1 sequence (Q8RJN5 34-540): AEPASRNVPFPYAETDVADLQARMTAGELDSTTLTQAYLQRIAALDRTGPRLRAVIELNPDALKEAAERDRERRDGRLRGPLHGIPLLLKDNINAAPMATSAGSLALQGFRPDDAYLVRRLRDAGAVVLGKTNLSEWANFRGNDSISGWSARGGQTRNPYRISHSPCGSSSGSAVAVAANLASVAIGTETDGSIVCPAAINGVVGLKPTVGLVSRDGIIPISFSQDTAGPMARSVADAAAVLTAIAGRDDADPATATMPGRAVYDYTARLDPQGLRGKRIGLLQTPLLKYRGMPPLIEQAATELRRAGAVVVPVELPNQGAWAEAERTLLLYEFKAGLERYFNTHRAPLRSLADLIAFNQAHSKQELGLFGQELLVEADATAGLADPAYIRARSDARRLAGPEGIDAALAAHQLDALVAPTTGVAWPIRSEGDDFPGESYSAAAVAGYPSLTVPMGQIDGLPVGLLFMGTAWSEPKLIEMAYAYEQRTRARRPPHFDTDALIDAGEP

[2] = target: T1, peptide amidase from Xanthomonas maltophilia; test: Splitting of racemic mixtures of N-protected amino acid amides; format: biochemical; settings: racemic substrate 10 mM, 20 U peptide amidase in 50 ml, 50 mM triethylammonium carbonate pH 7.5, 30° C.
Method: The tests for the splitting [separation] of racemic mixtures took place in 50 mM triethylammonium carbonate buffer, pH 7.5. The test batches a 50 ml with 20 U peptide amidase each were incubated at 30° C. Z-D,L-Ala-NH2, Ac-D,L-Met-NH2 and Ac-D,L-neopentylglycine amide (Ac-D,L-Npg-NH2) were available as substrates. The concentration of the substrates in the reaction batch was 10 mM. Specimens were taken at different times, the reaction stopped by heating for 5 minutes at 95° C. and the enantiomeric purity examined with HPLC.

Xanthomonas maltophilia = test: Inducibility of peptide amidase from Xanthomonas maltophilia; format: cell-based; settings: for Activity (peptide amidase in raw extract) / Spec. activity (peptide amidase in raw extract): additive in the nutrient medium (amide 0.5%), 2 days, 30° C., 120 rpm
Method: 1 l Erlenmeyer flasks were provided with 200 ml of the nutrient medium used in the second part of the screening for the examinations of the inducibility of peptide amidase from Xanthomonas maltophilia. The amount of yeast extract was raised to 0.1% thereby and only one amide derivative added to 0.5% of the medium in each instance. In addition, media without the addition of amides and with 1.5% yeast extract were examined. Ac-DL-Met-NH2, leucine amide and carnitine amide were used as amides. The flasks were inoculated to 0.5% and agitated 2 days at 30° C. and 120 rpm. The obtention of the raw extracts took place as already described above.

[3] = target: T1, peptide amidase from Xanthomonas maltophilia; test: Enzyme kinetics of peptide amidase; format: biochemical; settings: substrate 0.4 to 20 mM, 50 mM tris/HCl pH 7.5, 2 hours, 30° C.
Method: (§1) The dependency of the reaction rate of peptide amidase from Xanthomonas maltophilia on the substrate concentration (Z-Gly-Tyr-NH2) was determined and the kinetic parameters determined from the data according to Marquardt. To this end, 50 μl enzyme solution a 27 μg BSAeq/ml were compounded with 400 μl 50 mM tris/HCl buffer, pH 7.5. The reaction was started by adding Z-Gly-Tyr-NH2 as substrate. The substrate was present in the reaction batches in a concentration range of 0.4 to 20 mM. The incubation took place for 2 hours at 30° C. The enzyme activity was then determined as described under 1.4.
(§2) The reaction conditions were selected with a view to the pH stability of peptide amidase from Xanthomonas maltophilia.
(§3) In order to stop the reaction 100 μl of the reaction solution was removed, compounded with 100 μl glacial acetic acid and filled with 1.4 ml HPLC mobile solvent. An aliquot of 20 μl was analyzed by HPLC. The conditions for the HPLC analysis of Z-Gly-Tyr-NH2 were as follows: […]

[4] = target: T1, peptide amidase from Xanthomonas maltophilia; test: Influence of solvents on the peptide amidase activity; format: biochemical; settings: pH 7.5, 90 minutes, 30° C.
Method: 200 μl enzyme solution (59 μg BSAeq/ml, purification stage after the gel filtration) were compounded in each instance with 700 μl of an appropriate mixture of 50 mM tris/solvent, pH 7.5 for the examinations of the influence of solvents on the peptide amidase activity. Dimethylformamide (DMF), acetone, ethanol and propan-1-ol, which were present in the reaction batch up to 70% by volumetric amount, were tested as solvents. The reaction was started by adding substrate Z-Gly-Tyr-NH2. The incubation took place for 90 minutes at 30° C. Then, aliquots of 100 μl of the reaction batches were provided with 100 μl glacial acetic acid and the enzyme activity determined as described in 1.4. […] It is apparent that at 20% DMF, 94% residual activity is still present and even at 30%, 59% is still present. In the presence of other solvents such as […] the enzyme distinctly loses activity but is nevertheless not completely inactivated at a content of 10% (residual activity 30%).

[5] = system: peptide amidase from flavedo of oranges; settings: cited from earlier work
[6] = target: T1, peptide amidase from Xanthomonas maltophilia; test: Substrate spectrum of peptide amidase, enzymatic determination of the released ammonia; format: biochemical; settings: substrate 10 mM, 18 mU peptide amidase per ml, 50 mM tris/HCl pH 7.5, 30° C., 3 hours
Method: 18 mU of peptide amidase (purification state after the gel filtration) per ml test batch was used for the substrate spectrum of peptide amidase from Xanthomonas maltophilia. The concentration of the tested substrates was 10 mM in the reaction batch. Unless otherwise indicated, L-amino acid derivatives were used. The incubation took place in 50 mM tris/HCl, pH 7.5 at 30° C. for 3 hours. The reaction was stopped by heating for 5 minutes at 95° C. The determination of activity took place using enzymatic determination of the released ammonia (Bergmeyer, U. (1985): Methods of Enzymatic Analysis, p. 459, VCH Verlagsgesellschaft, Weinheim).

[7] = substrate: NC(=O)[C@H](Cc1ccc(O)cc1)NC(=O)CNC(=O)OCc1ccccc1; test: Enzyme kinetics of peptide amidase; format: biochemical, Xanthomonas maltophilia; settings: other: substrate 0.4 to 20 mM, 50 mM tris/HCl pH 7.5, 2 hours, 30° C.
Method: as §1, §2, §3

[8] = potential inhibitor 10 mM in the test, preincubation 1 h 30° C., Z-Gly-Tyr-NH2 10 mM, 2.5 h

Q: For `c1ccc(-c2ccccn2)nc1` [2,2'-dipyridyl], which remaining activity at 10000 µM [1, 8] is on record?
A: 97%

Q: Which “enantiomeric purity examined with HPLC (share of the enantiomer in the acid product)” value (“enantiomeric purity examined with HPLC” below) [2] does the source give for `C[C@@H](NC(=O)OCc1ccccc1)C(=O)O` [Z-D-Ala-OH] here?
A: 0.4%

Q: Which residual activity [1, 8] does the source give for `O.O.O.O.O.O.[Cl-].[Cl-].[Co+2]` [CoCl2 *6 H2 O] here?
A: 80%

Q: With `CC(=O)N[C@@H](CC(C)(C)C)C(=O)O` [Ac-L-Npg-OH, N-acetyl-L-neopentylglycine] as the molecule, how does the “enantiomeric purity examined with HPLC” value [2] read?
A: 99.8%

Q: Which “Activity (peptide amidase in raw extract)” value (Xanthomonas maltophilia) does the source give for `C[N+](C)(C)CC(O)CC(N)=O` (centres unmarked) [Carnitine amide, carnitine amide] here?
A: 30 mU/ml

Q: What about the “Spec. activity (peptide amidase in raw extract)” value (Xanthomonas maltophilia) of the same molecule?
A: 7 mU/mg BSAeq

Q: With `CSCC[C@H](NC(C)=O)C(=O)O` [Ac-L-Met-OH] as the molecule, how does the “enantiomeric purity examined with HPLC” value [2] read?
A: 99.7-99.8%

Q: With `CC(C)C[C@H](N)C(N)=O` [Leu-NH2, leucine amide] as the molecule, how does the “Activity (peptide amidase in raw extract)” value (Xanthomonas maltophilia) read?
A: 15 mU/ml

Q: What about the “Spec. activity (peptide amidase in raw extract)” value (Xanthomonas maltophilia) of the same molecule?
A: 3 mU/mg BSAeq

Q: What does the source list for `NCCc1ccc(S(=O)(=O)F)cc1` [Pefabloc]?
A: inhibition of the microbial peptide amidase (serine groups) [1]: Inhibition; residual activity ([1]; inhibitor 0.3 mM, preincubation 1 h 30° C., Z-Gly-Tyr-NH2 10 mM): 62%; residual activity ([1]; inhibitor 0.1 Mm, preincubation 1 h 30° C., Z-Gly-Tyr-NH2 10 mM): 82%; residual activity [1, 8]: 0%

Q: Which residual activity [1, 8] does the source give for `O.O.O.O.O.O.[Cl][Hg][Cl]` [HgCl2 *6 H2 O] here?
A: 67%

Q: With `c1cnc2c(c1)ccc1cccnc12` [1,10-phenanthroline] as the molecule, how does the remaining activity at 10000 µM [1, 8] read?
A: 92%

Q: With `O[C@H](CS)[C@H](O)CS` (relative stereo) [1,4-dithio-D,L-threitol] as the molecule, how does the remaining activity at 10000 µM [1, 8] read?
A: 96%

Q: With `CCCCC[C@H](CC(=O)NO)C(=O)N[C@H](C(=O)N1CCC[C@H]1CO)C(C)C` [Actinonine] as the molecule, how does the remaining activity at 10000 µM [1, 8] read?
A: 106%

Q: With `CSCC[C@@H](NC(C)=O)C(=O)O` [Ac-D-Met-OH] as the molecule, how does the “enantiomeric purity examined with HPLC” value [2] read?
A: 0.2-0.3%

Q: With `N[C@@H]1CONC1=O` [D-cycloserine] as the molecule, how does the remaining activity at 10000 µM [1, 8] read?
A: 100%

Q: With `O.O.O.O.O.O.[Cl][Ni][Cl]` [NiCl2 *6 H2 O] as the molecule, how does the residual activity [1, 8] read?
A: 93%

Q: With `O.O.O.O.O.O=S(=O)([O-])[O-].[Cu+2]` [CuSO4 *5 H2 O] as the molecule, how does the residual activity [1, 8] read?
A: 103%

Q: Which vmax [3] does the source give for `NC(=O)[C@H](Cc1ccc(O)cc1)NC(=O)CNC(=O)OCc1ccccc1` [Z-Gly-Tyr-NH2] (Cbz-Gly-Tyr-NH2) here?
A: 0.53 U/mg BSAeq

Q: For `C[C@H](NC(=O)OCc1ccccc1)C(=O)O` [Z-L-Ala-OH], which “enantiomeric purity examined with HPLC” value [2] is on record?
A: 99.6%

Q: For `CN(C)C=O` [DMF, Dimethylformamide], which “residual activity of peptidase amidase in presence of solvent” value (“residual activity of peptidase amidase” for short) ([4]; 20% solvent) is on record?
A: 94%

Q: What about the “residual activity of peptidase amidase” value ([4]; 30% solvent) of the same molecule?
A: 59%

Q: Which remaining activity at 10000 µM [1] does the source give for `O=C(O)CN(CCN(CC(=O)O)CC(=O)O)CC(=O)O` [EDTA] here?
A: 96%

Q: With `NNC(N)=O` [Semicarbazide] as the molecule, how does the remaining activity at 10000 µM [1, 8] read?
A: 99%

Q: For `CC(C)O` [propan-2-ol], which “residual activity of peptidase amidase” value ([4]; 10% solvent) is on record?
A: 30%

Q: For `O=S(=O)(F)Cc1ccccc1` [Phenylmethane sulfonyl fluoride], which “inhibition of the microbial peptide amidase (serine groups)” value [1] is on record?
A: Inhibition

Q: And the residual activity [1, 8]?
A: 58%

Q: What about the “inhibition by inhibitors from serine proteases” value [5] of the same molecule?
A: Slight inhibition

Q: What does the source list for `CSCCC(NC(C)=O)C(N)=O` (racemic) [Ac-D,L-Met-NH2, N-Ac-D,L-methionine amide]?
A: Relative conversion (conversion of N-acetyl amino acid amides, Table 4b) [6]: 102%; Relative conversion (influence of protective group and adjacent amino acid, Table 4c) [6]: 102%; Activity (peptide amidase in raw extract) (Xanthomonas maltophilia): 88 mU/ml; Spec. activity (peptide amidase in raw extract) (Xanthomonas maltophilia): 13 mU/mg BSAeq; change of the specific activity by addition of the inductor (Xanthomonas maltophilia; compared with medium without additive): doubled to tripled

Q: Which “enantiomeric purity examined with HPLC” value [2] does the source give for `CC(=O)N[C@H](CC(C)(C)C)C(=O)O` [Ac-D-Npg-OH] here?
A: 0.2%

B1: peptide amidase from Xanthomonas maltophilia (Stenotrophomonas maltophilia) (protein)
chain: T1 sequence (Q8RJN5 34-540)
notes: wild type, not recombinant
Q: For B1, which Km [7] is on record?
A: 820 µM
